Laboratory results as given in patent US12497642B2, “Incorporation of unnatural nucleotides and methods of use in vivo thereof” (THE SCRIPPS RESEARCH INSTITUTE, priority 2017, dated 2025).
“And” between values parts separate entries of the source, which are not always exact repeats. Equal values may be shown once.

Assays:
[1] = test system: semi-synthetic organism (SSO) (strain YZ3); assay: Replication and UBP retention in vivo in the semi-synthetic organism (streptavidin biotin shift, PAGE), Example 1; format: cell-based, Escherichia coli; conditions: for UBP retention in vivo, in words: discussion
Experimental: All bacteria were cultured in 100 μL of liquid 2×YT media (casein peptone 16 g/L, yeast extract 10 g/L, NaCl 5 g/L) supplemented with potassium phosphate (50 mM, pH 7) in 96-well microwell plates. When noted, antibiotics were used at the following concentrations: chloramphenicol, 5 μg/mL; ampicillin, 100 μg/mL. Cell growth, indicated as OD600, was measured using a Perkin Elmer EnVision 2103 Multilabel Reader with a 590/20 nm filter. Unless otherwise stated, molecular biology reagents were purchased from New England Biolabs (Ipswich, MA) and were used according to the manufacturer's protocols. As necessary, purification of nucleic acids was accomplished by micro-elution columns (Zymo Research Corp; Irvine, CA). All natural oligonucleotides were purchased from IDT (San Diego, CA), and oligonucleotides containing dNaM were synthesized by Biosearch Technologies (Petaluma, CA) with purification by reverse phase cartridge. Unnatural nucleotide triphosphates were prepared, and confirmed by MALDI-TOF and UV/Vis.
Plasmids containing the dNaM-dTPT3 UBP were prepared and used to transform the semi-synthetic organism (SSO). To create a template for in vivo replication assays, Golden Gate assembly was used to construct a derivative of the pUC19 plasmid in which a single dNaM-dTPT3 UBP was embedded within the TK1 sequence ([…]; […]), a context within which the UBP is well replicated in the SSO. Plasmids were then used to transform the SSO (strain YZ3). Following transformation, the SSO was allowed to recover at 37° C. for 1 h in media containing dNaMTP (125 μM) and dTPT3TP (25 μM). Cells were pelleted by centrifugation, resuspended in fresh media lacking unnatural triphosphates, split into 100-μL aliquots and then used to inoculate cultures containing different pairs of unnatural triphosphates at the specified concentrations. When the cell density reached an OD600 of ˜0.7, cells were pelleted and plasmids were recovered and PCR amplified with d5SICSTP and a biotinylated analog of dNaMTP, and UBP retention was determined by comparing the intensity of the streptavidin shifted and unshifted bands via PAGE.

[2] = target: T1, Klenow fragment of E. coli DNA polymerase I (Escherichia coli, UniProt P00582); assay: Steady-state kinetic assay of unnatural triphosphate insertion; format: biochemical; conditions: insertion opposite dY = dA in template
T1 construct: the Klenow fragment of E. coli DNA polymerase I
T1 sequence (P00582 324-928): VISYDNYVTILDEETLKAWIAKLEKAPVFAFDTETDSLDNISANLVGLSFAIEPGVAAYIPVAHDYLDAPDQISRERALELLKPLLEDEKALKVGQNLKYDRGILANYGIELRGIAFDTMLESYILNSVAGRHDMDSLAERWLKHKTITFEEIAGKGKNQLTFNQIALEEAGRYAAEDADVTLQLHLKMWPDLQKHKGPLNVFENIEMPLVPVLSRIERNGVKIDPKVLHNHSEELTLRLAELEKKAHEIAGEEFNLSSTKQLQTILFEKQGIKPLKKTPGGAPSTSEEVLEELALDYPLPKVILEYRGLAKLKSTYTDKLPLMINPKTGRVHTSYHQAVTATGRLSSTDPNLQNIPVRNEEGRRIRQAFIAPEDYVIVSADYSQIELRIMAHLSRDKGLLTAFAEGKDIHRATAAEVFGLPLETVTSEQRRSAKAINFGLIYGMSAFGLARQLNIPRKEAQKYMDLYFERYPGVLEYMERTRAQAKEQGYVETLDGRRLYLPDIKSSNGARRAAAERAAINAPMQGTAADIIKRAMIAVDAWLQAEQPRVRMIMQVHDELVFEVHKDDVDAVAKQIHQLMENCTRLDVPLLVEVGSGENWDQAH

[3] = dNaMTP analog paired with dTPT3TP
[4] = context 2 (AXA), dTPT3TP 2.5 μM, dNaMTP analog 2.5 μM
[5] = context 2 (AXA), dTPT3TP 2.5 μM, dNaMTP analog 10 μM
[6] = context 2 (AXA), dTPT3TP 2.5 μM, dNaMTP analog 25 μM
[7] = context 2 (AXA), dTPT3TP 10 μM, dNaMTP analog 2.5 μM
[8] = context 2 (AXA), dTPT3TP 10 μM, dNaMTP analog 10 μM
[9] = context 2 (AXA), dTPT3TP 10 μM, dNaMTP analog 25 μM
[10] = context 2 (AXA), dTPT3TP 25 μM, dNaMTP analog 2.5 μM
[11] = context 2 (AXA), dTPT3TP 25 μM, dNaMTP analog 10 μM
[12] = context 2 (AXA), dTPT3TP 25 μM, dNaMTP analog 25 μM
[13] = context 2 (AXA), paired with dSICSTP 10 μM, dNaMTP analog 25 μM
[14] = context 3 (CXC), dTPT3TP 2.5 μM, dNaMTP analog 2.5 μM
[15] = context 3 (CXC), dTPT3TP 2.5 μM, dNaMTP analog 10 μM
[16] = context 3 (CXC), dTPT3TP 2.5 μM, dNaMTP analog 25 μM
[17] = context 3 (CXC), dTPT3TP 10 μM, dNaMTP analog 2.5 μM
[18] = context 3 (CXC), dTPT3TP 10 μM, dNaMTP analog 10 μM
[19] = context 3 (CXC), dTPT3TP 10 μM, dNaMTP analog 25 μM
[20] = context 3 (CXC), dTPT3TP 25 μM, dNaMTP analog 2.5 μM
[21] = context 3 (CXC), dTPT3TP 25 μM, dNaMTP analog 10 μM
[22] = context 3 (CXC), dTPT3TP 25 μM, dNaMTP analog 25 μM
[23] = context 1, dNaMTP 125 μM, dTPT3TP analog 125 μM

COc1cc(N=[N+]=[N-])ccc1C1CC(O)C(COP(=O)(O)OP(=O)(O)OP(=O)(O)O)O1 (stereo not shown) [dZMOTP]
UBP retention in vivo, in words [1, 3]: well retained in vivo when supplemented at high concentrations

C#Cc1cc(OC)c(C2CC(O)C(COP(=O)(O)OP(=O)(O)OP(=O)(O)O)O2)cc1F (stereo not shown) [dFEMOTP]
UBP retention in vivo, in words [1, 3]: well retained in vivo when supplemented at high concentrations

COc1cc(C)c(F)cc1C1CC(O)C(COP(=O)(O)OP(=O)(O)OP(=O)(O)O)O1 (stereo not shown) [d5FMTP]
UBP retention (%) [1, 4]: 47 ± 14% | UBP retention (%) [1, 5]: 61 ± 27% | UBP retention (%) [1, 6]: 75 ± 6% | UBP retention (%) [1, 7]: 69 ± 6% | UBP retention (%) [1, 8]: 83 ± 5% | UBP retention (%) [1, 9]: 87 ± 12% | UBP retention (%) [1, 10]: 76 ± 9% | UBP retention (%) [1, 11]: 95 ± 3% | UBP retention (%) [1, 12]: 90 ± 7% | UBP retention [1, 13]: 68% | UBP retention (%) [1, 14]: 9 ± 6% | UBP retention (%) [1, 15]: 10 ± 5% | UBP retention (%) [1, 16]: 11 ± 8% | UBP retention (%) [1, 17]: 6 ± 4% | UBP retention (%) [1, 18]: 14 ± 5% | UBP retention (%) [1, 19]: 27 ± 14% | UBP retention (%) [1, 20]: 14 ± 3% | UBP retention (%) [1, 21]: 33 ± 16% | UBP retention (%) [1, 22]: 49% and 49 ± 27%

Cc1cc2c(=S)n(C3CC(O)C(COP(=O)(O)OP(=O)(O)OP(=O)(O)O)O3)ccc2s1 (stereo not shown) [dTPT1]
UBP retention [1, 23]: significant UBP retention

Cc1cc2c(=S)n(C3CC(O)C(COP(=O)(O)OP(=O)(O)OP(=O)(O)O)O3)ccc2o1 (stereo not shown) [dFPT1]
UBP retention [1, 23]: significant UBP retention

O=P(O)(O)OP(=O)(O)OP(=O)(O)OCC1OC(n2ccc3ncccc3c2=S)CC1O (stereo not shown) [dSNICS]
UBP retention [1, 23]: significant UBP retention | UBP retention in vivo, in words ([1]; dTPT3TP analog paired with dNaMTP): moderate retention at both low and high concentrations

COc1cc(C)ccc1C1CC(O)C(COP(=O)(O)OP(=O)(O)OP(=O)(O)O)O1 (stereo not shown) [dMMO2TP]
UBP retention (%) [1, 4]: 17 ± 8% | UBP retention (%) [1, 5]: 54 ± 19% | UBP retention (%) [1, 6]: 47 ± 20% | UBP retention (%) [1, 7]: 68 ± 16% | UBP retention (%) [1, 8]: 67 ± 16% | UBP retention (%) [1, 9]: 88 ± 7% | UBP retention (%) [1, 10]: 63 ± 31% | UBP retention (%) [1, 11]: 86 ± 11% | UBP retention (%) [1, 12]: 90 ± 4% | UBP retention [1, 13]: 19% | UBP retention (%) [1, 14]: 5 ± 3% | UBP retention (%) [1, 15]: 10 ± 3% | UBP retention (%) [1, 16]: 13 ± 4% | UBP retention (%) [1, 17]: 9 ± 3% | UBP retention (%) [1, 18]: 16 ± 10% | UBP retention (%) [1, 19]: 22 ± 10% | UBP retention (%) [1, 20]: 19 ± 8% | UBP retention (%) [1, 21]: 36 ± 12% | UBP retention (%) [1, 22]: 45% and 45 ± 20%

O=P(O)(O)OP(=O)(O)OP(=O)(O)OCC1OC(n2ccc3ccsc3c2=S)CC1O (stereo not shown) [dTPT3TP]
UBP retention [1, 23]: significant UBP retention | UBP retention ([1]; context 2 (AXA), dTPT3TP 10 μM paired with each of the four dNaMTP analogs at 25 μM): > 87%

COc1cc(Cl)ccc1C1CC(O)C(COP(=O)(O)OP(=O)(O)OP(=O)(O)O)O1 (stereo not shown) [dClMOTP]
UBP retention (%) [1, 4]: 73 ± 10% | UBP retention (%) [1, 5]: 84 ± 7% | UBP retention (%) [1, 6]: 86 ± 6% | UBP retention (%) [1, 7]: 83 ± 9% | UBP retention (%) [1, 8]: 89 ± 5% | UBP retention (%) [1, 9]: 96 ± 2% | UBP retention (%) [1, 10]: 80 ± 20% | UBP retention (%) [1, 11]: 92 ± 4% | UBP retention (%) [1, 12]: 98 ± 4% | UBP retention [1, 13]: 61% | UBP retention (%) [1, 14]: 9 ± 2% | UBP retention (%) [1, 15]: 7 ± 4% | UBP retention (%) [1, 16]: 12 ± 2% | UBP retention (%) [1, 17]: 9 ± 1% | UBP retention (%) [1, 18]: 15 ± 2% | UBP retention (%) [1, 19]: 14 ± 5% | UBP retention (%) [1, 20]: 8 ± 4% | UBP retention (%) [1, 21]: 20 ± 7% | UBP retention (%) [1, 22]: 21% | UBP retention (%) ([1]; context 3 (CXC), dTPT3TP 25 μM, dNaMTP analog 25 μM, listed as dCIMOTP): 21 ± 14%

Cc1ccc2ccn(C3CC(O)C(COP(=O)(O)OP(=O)(O)OP(=O)(O)O)O3)c(=S)c2c1 (stereo not shown) [d4SICS]
UBP retention [1, 23]: significant UBP retention

Cc1cn([C@H]2C[C@H](O)[C@@H](COP(=O)(O)OP(=O)(O)OP(=O)(O)O)O2)c(=O)[nH]c1=O [dTTP, reference compound]
kcat [2]: 0.085 s⁻¹ and 0.0853 ± 0.0127 s⁻¹

COc1cc(C#N)ccc1C1CC(O)C(COP(=O)(O)OP(=O)(O)OP(=O)(O)O)O1 (stereo not shown) [dCNMOTP]
UBP retention (%) ([1]; Table 5, sequence context 1 (AXT), dTPT3TP 25 μM, dNaMTP or dCNMOTP 25 μM): 98% | UBP retention (%) ([1]; Table 5, sequence context 1 (AXT), dTPT3TP 25 μM, dNaMTP or dCNMOTP 25 μM, listed as dCNMO): 98 ± 7% | UBP retention (%) ([1]; Table 5, sequence context 1 (AXT), dTPT3TP 25 μM, dNaMTP or dCNMOTP 125 μM): 99 ± 8% | UBP retention (%) ([1]; Table 5, sequence context 2 (AXA), dTPT3TP 25 μM, dNaMTP or dCNMOTP 25 μM): 101 ± 10% | UBP retention (%) ([1]; Table 5, sequence context 2 (AXA), dTPT3TP 25 μM, dNaMTP or dCNMOTP 125 μM): 100 ± 10% | UBP retention (%) ([1]; Table 5, sequence context 3 (CXC), dTPT3TP 25 μM, dNaMTP or dCNMOTP 25 μM): 42% | UBP retention (%) ([1]; Table 5, sequence context 3 (CXC), dTPT3TP 25 μM, dNaMTP or dCNMOTP 25 μM, listed as dCNMO): 42 ± 18% | UBP retention (%) ([1]; Table 5, sequence context 3 (CXC), dTPT3TP 25 μM, dNaMTP or dCNMOTP 125 μM): 65% | UBP retention (%) ([1]; Table 5, sequence context 3 (CXC), dTPT3TP 25 μM, dNaMTP or dCNMOTP 125 μM, listed as dCNMO): 65 ± 7% | UBP retention (%) ([1]; Table 5, sequence context 4 (CXG), dTPT3TP 25 μM, dNaMTP or dCNMOTP 25 μM): 14 ± 5% | UBP retention (%) ([1]; Table 5, sequence context 4 (CXG), dTPT3TP 25 μM, dNaMTP or dCNMOTP 125 μM): 24% | UBP retention (%) ([1]; Table 5, sequence context 4 (CXG), dTPT3TP 25 μM, dNaMTP or dCNMOTP 125 μM, listed as dCNMO): 24 ± 13% | UBP retention (%) [1, 4]: 92 ± 4% | UBP retention (%) [1, 5]: 82 ± 24% | UBP retention (%) [1, 6]: 91 ± 10% | UBP retention (%) [1, 7]: 88 ± 9% | UBP retention (%) [1, 8]: 91 ± 3% | UBP retention (%) [1, 9]: 95 ± 2% | UBP retention (%) [1, 10]: 103 ± 7% | UBP retention (%) [1, 11]: 103 ± 1% | UBP retention (%) [1, 12]: 101 ± 10% | UBP retention [1, 13]: 59% | UBP retention (%) [1, 14]: 9 ± 1% | UBP retention (%) [1, 15]: 22 ± 10% | UBP retention (%) [1, 16]: 31 ± 14% | UBP retention (%) [1, 17]: 13 ± 5% | UBP retention (%) [1, 18]: 28 ± 7% | UBP retention (%) [1, 19]: 35 ± 8% | UBP retention (%) [1, 20]: 22 ± 7% | UBP retention (%) [1, 21]: 25 ± 22% | UBP retention (%) [1, 22]: 42% and 42 ± 18%

O=P(O)(O)OP(=O)(O)OP(=O)(O)OCC1OC(n2ccc3ccccc3c2=S)CC1O (stereo not shown) [dSICSTP]
UBP retention [1, 23]: significant UBP retention
